# How the values were obtained:
# [1] = tested on: differentiated 3T3-L1 cells; test: Real time PCR gene expression (nutrigenomics) study in differentiated 3T3-L1 adipocytes; assay type: cell-based, murine; conditions: 12.5 ug/mL, versus DMSO
# Procedure: 3T3L1 murine adipocytes model system was used to understand basic cellular mechanisms associated with diabetes, obesity and related disorders. Nutrigenomics study was carried out to evaluate effect of beta-cryptoxanthin on adipocyte cells, particularly differentiated 3T3-L1 cells, the study was based on real-time polymerase chain reaction (Real time PCR) with dose 12.5 ug/mL. The effect of beta-cryptoxanthin on Adipocyte differentiation and its activity for bio markers PPARG, SCD-1, acetyl Coa carboxylase (ACC), SREBP-1, C/EBPα and FAS were evaluated.
# See FIG. 4, where each set of bar graphs for tests with BCX and without BCX (DMSO) correspond from the leftside bar respectively with the heading legend of the factors tested (i.e. for the bar results of BCX, 0.9 for ACC alpha, 0.39 for C/EPB alpha, 0.33 for FAS, 0.7 for PPAR gamma, and 0.38 for SCD-1).
# [2] = Body weight, feed intake, visceral fat and liver weight in control and high fat diet rats; assay type: in vivo, Sprague Dawley rats; conditions: 2.5 mg/kg daily, 12 weeks
# Procedure: (§1) Male Sprague Dawley rats (7 rats/group, age: 8 week, weight: 180±20 g) were housed in a controlled environment with a 12:12-h light-dark cycle at 22° C. and provided with rat chow and water ad libitum. All experiments were conducted under the National Institutes of Health's Guidelines for the Care and Use of Laboratory Animals and approved by the Ethics Committee of the Veterinary Control Institute. After acclimation for 2 weeks, the rats were divided into four groups: Rats were randomly divided into the following groups: (1) Control, (2) High Fat Diet (HFD) (42% of calories from fat), (3) control+beta-cryptoxanthin (2.5 mg/kg) 4) HFD (42% of calories from fat)+beta-cryptoxanthin (2.5 mg/kg) was administered daily as supplement for 12 weeks.
# The experiment was performed using 28 male Sprague-Dawley rats (8 weeks old, weighing 180±20 g), purchased from the Inonu University Laboratory Animal Research Center (Malatya, Turkey). Rats were housed in cages in a temperature and humidity controlled environment, on a 12-hr light and 12-hr dark cycle, designed for the purpose of the study. The temperature inside the rat cages was 21±2° C., relative humidity was 55±5% and consecutive light-dark cycles lasted 12 hours. The protocol of the study was approved by the Animal Experimentation Ethics Committee of Inonu University (Malatya, Turkey). All procedures involving rats were conducted in strict compliance with relevant laws, the Animal Welfare Act, Public Health Services Policy, and guidelines established by the Institutional Animal Care and Use Committee of the Institute. Prior the starting the experiment, animals were assigned to either a regular diet (control; 12% of calories from fat) or a high-fat diet (HFD, 42% of calories from fat). Control or HFD composed according to the American Institute of Nutrition AIN-93 (Reeves et al., 1993) recommendations of casein (20%), soybean oil (7%), wheat starch (53.2%), sucrose (10%), potato starch (5%), 1-cysteine (0.3%), vitamin mix AIN-93M (1%) and mineral mix AIN-93M (3.5%). The high-fat diets (42% calories from fat) were obtained from the basal AIN-93 diet, by replacement of wheat starch with fat (tallow 15% and soybean oil 10%). For induction of obesity (insulin resistance), the rats were fed with HFD for 12 weeks
# (§2) After a one week period of adaptation to laboratory conditions, the animals were randomly divided into four equal groups: 1) Control (n=7): untreated rats were allowed free access to a standard diet; 2) BCX Group, rats were fed a standard diet supplemented with beta-cryptoxanthin (n=7) 2.5 mg/kg; 3) HFD Group (high-fat diet; 42% of calories from fat; n=7): rats were fed a high-fat diet 4) HFD+BCX Group, rats were fed a high-fat diet (42% of calories from fat; n=7) supplemented with beta-cryptoxanthin 2.5 mg/kg. 5% suspension of beta-cryptoxanthin was dissolved in corn oil. At the end of the experiment, all rats were sacrificed by cervical dislocation. Blood samples were taken from rats in the morning upon overnight fasting for biochemical analyses and their visceral fat and liver samples were removed and weighed after sacrificing the animals.
# [3] = Serum glucose, insulin, leptin, adiponectin and lipid profile in control and HFD rats; assay type: in vivo, Sprague Dawley rats; conditions: 2.5 mg/kg daily, 12 weeks
# Procedure: as §1, §2
# Blood was collected by cardiac puncture using an anticoagulant-free vacutainer tube, later centrifuged at 3,000×g for 10 min to obtain serum and kept frozen at −80° C. until it was assayed for biochemical parameters and malondialdehyde (MDA). Serum biochemical parameters were estimated using an automatic analyzer (Samsung LABGEO PT10, Samsung Electronics Co, Suwon, Korea). Repeatability and device/method precision of LABGEO^PT10 was established according to the IVR-PT06 guideline. Serum insulin, leptin and adiponectin levels were measured with the Rat Insulin Kit (Linco Research Inc, St. Charles, Mo., USA) by ELISA (Elx-800; Bio-Tek Instruments Inc, Vermont, USA).
# [4] = Oxidative stress markers and antioxidant status (TBARS/MDA, TAC, SOD, CAT, GSHPx) in serum, retina and liver of control and HFD rats; assay type: in vivo, Sprague Dawley rats; conditions: 2.5 mg/kg daily, 12 weeks
# Procedure: as §1, §2
# The total antioxidant capacity (TAC) was measured using an antioxidant assay kit (Sigma, St Louis, Mo., USA). Trolox was used as an antioxidant standard to calculate Trolox equivalent antioxidant capacity; absorbance readings were taken at 520 nm. Lipid peroxidation was measured in terms of MDA formation, which is the major product of membrane lipid peroxidation done by a previously described method (Karatepe, 2004) with slight modification.
# The liver MDA content was measured by high performance liquid chromatography (HPLC, Shimadzu, Tokyo, Japan) using a Shimadzu UV-vis SPD-10 AVP detector and a CTO-10 AS VP column in a mobile phase consisting of 30 mM KH2PO4 and methanol (82.5+17.5, v/v; pH 3.6) at a flow rate of 1.2 ml/min. Column effluents were monitored at 250 nm and the volume was 20 μl. The liver homogenate (10%, w/v) was prepared in 10 mM phosphate buffer (pH 7.4), centrifuged at 13,000×g for 10 min at 4° C., and the supernatant was collected and stored at −80° C. for MDA analysis (Karatepe, 2004). Activities of superoxide dismutase (SOD), catalase (CAT) and glutathione peroxidase (GPx) of homogenized liver were measured using a commercial kit (Cayman Chemical, Ann Arbor, Mich., USA) according to the manufacturer's instructions.
# [5] = tested on: VEGF, Nrf-2, NFkB, iNOS, ICAM-1, HO-1 in retina tissue; test: Western blot of retina tissue markers in HFD treated rats; assay type: in vivo, Sprague Dawley rats; conditions: FIG. 8
# [6] = tested on: BCO2, TNF-α, PPAR-γ, Nrf-2, NFkB, IRS-1, HO-1 in liver tissue; test: Western blot of liver tissue markers in HFD treated rats; assay type: in vivo, Sprague Dawley rats
# Procedure: as §2
# For Western blot analyses protein extraction was performed by homogenizing the liver in 1 ml ice-cold hypotonic buffer A, containing 10 mM2-[4-(2-Hydroxyethyl)-1-piperazinyl] ethanesulfonic acid [HEPES] (pH 7.8), 10 mMKCl, 2 mM MgCl2, 1 mM DTT, 0.1 mM EDTA, and 0.1 mM phenylmethylsulfonyl-fluoride (PMSF). The homogenates were added with 80 μl of 10% Nonidet P-40 (NP-40) solution and then centrifuged at 14,000×g for 2 min. The precipitates were washed once with 500 μl of buffer A plus 40 μl of 10% NP-40, centrifuged, re-suspended in 200 μl of buffer C [50 mM HEPES [pH 7.8], 50 mMKCl, 300 mM NaCl, 0.1 mM EDTA, 1 mM dihiothreitol [DTT], 0.1 mM PMSF, 20% glycerol], and recentrifugedat 14,800×g for 5 min. The supernatants were collected for determinations of NF-KB, VEGF, iNOS, ICAM, Nrf2, and HO-1 according to the method described by Sahin et al. [2012]. Equal amounts of protein (50 μg) were electrophoresed and subsequently transferred onto a nitrocellulose membrane (Schleicher and Schuell Inc., Keene, N.H., USA).
# Antibodies against NF-κB, TNF-α, Nrf2, HO-1, PPAR-γ, and p-IRS1, (Abcam (Cambridge, UK) were diluted (1:1000) in the same buffer containing 0.05% Tween-20. Protein loading was controlled sing a monoclonal mouse antibody against β-actin (A5316; Sigma). Bands were analyzed densitometrically using an image analysis system (Image J; National Institute of Health, Bethesda, USA). (FIG. 12)
# [7] = tested on: BCO2, TNF-α, PPAR-γ, Nrf-2, NFkB, IRS-1, HO-1 in liver tissue; test: as above; assay type: in vivo, Sprague Dawley rats; conditions: P<0.001
# [8] = HFD rats, listed as BC, 2.5 mg/kg
# [9] = HFD rats, listed as Beta-cryptoxanthin, 2.5 mg/kg
# [10] = HFD rats, Western blot, P<0.001
structure (smiles),measurement,setting,value
"CC1=C(/C=C/C(C)=C/C=C/C(C)=C/C=C/C=C(C)/C=C/C=C(C)/C=C/C2=C(C)C[C@@H](O)CC2(C)C)C(C)(C)CCC1 [BCX, beta-cryptoxanthin]",ACC alpha expression (FIG. 4 bar result),[1],0.9
same,PPAR gamma expression (FIG. 4 bar result),[1],0.7
same,Feed intake,[2]; HFD rats,16.87 g/day
same,Final BW,"[2]; HFD rats, 2.5 mg/kg",decrease
same,Liver (weight),"[2]; HFD rats, 2.5 mg/kg",decreased
same,Visceral fat,"[2]; HFD rats, 2.5 mg/kg",decreased
same,Final BW,[2]; [8],325.43 g
same,Liver (weight),[2]; [8],18.46 g
same,Visceral fat,[2]; [8],14.93 g
same,Final BW,[2]; [9],significantly reduced
same,Visceral fat,[2]; [9],a tendency towards a decrease
same,Feed intake,[2]; normal diet rats,23.88 g/day
same,Final BW,[2]; normal diet rats,290.29 g
same,Liver (weight),[2]; normal diet rats,12.74 g
same,Visceral fat,[2]; normal diet rats,7.75 g
same,Adiponectin,"[3]; HFD rats, 2.5 mg/kg",decreased
same,Glucose,"[3]; HFD rats, 2.5 mg/kg",significantly reduced
same,Insulin,"[3]; HFD rats, 2.5 mg/kg",significantly reduced
same,Leptin,"[3]; HFD rats, 2.5 mg/kg",significantly reduced
same,Adiponectin,[3]; normal diet rats,10.8 µg/mL
same,FFA,[3]; normal diet rats,1.12 mM
same,Glucose,[3]; normal diet rats,78.29 mg/dL
same,HDL-C,[3]; normal diet rats,17.00 mg/dL
same,Insulin,[3]; normal diet rats,1.73 ng/mL
same,LDL-C,[3]; normal diet rats,25.00 mg/dL
same,Leptin,[3]; normal diet rats,30.43 ng/mL
same,T-C (total cholesterol),[3]; normal diet rats,48.6 mg/dL
same,TG,[3]; normal diet rats,20.57 mg/dL
same,Liver CAT,"[4]; HFD rats, 2.5 mg/kg",increased
same,Liver SOD,"[4]; HFD rats, 2.5 mg/kg",increased
same,Liver TBARS,"[4]; HFD rats, 2.5 mg/kg",decreased
same,Retinal TBARS,"[4]; HFD rats, 2.5 mg/kg",reducing
same,Serum TAC,"[4]; HFD rats, 2.5 mg/kg",increased
same,Serum TBARS,"[4]; HFD rats, 2.5 mg/kg",reducing
same,Liver CAT,[4]; [8],271.57 U/mg protein
same,Liver GSHPx,[4]; [8],17.43 U/mg protein
same,Liver SOD,[4]; [8],130.43 U/mg protein
same,Liver TBARS,[4]; [8],2.98 nmol/mg protein
same,Serum TAC,[4]; [8],0.64 U/mL
same,Serum TBARS,[4]; [8],1.64 nmol/mL
same,Liver CAT,[4]; [9],increased
same,Liver GSHPx,[4]; [9],increased
same,Liver SOD,[4]; [9],increased
same,Liver TBARS,[4]; [9],decreased
same,Liver CAT,[4]; normal diet rats,306.14 U/mg protein
same,Liver GSHPx,[4]; normal diet rats,50.29 U/mg protein
same,Liver SOD,[4]; normal diet rats,198.57 U/mg protein
same,Liver TBARS,[4]; normal diet rats,1.56 nmol/mg protein
same,Serum TAC,[4]; normal diet rats,1.19 U/mL
same,Serum TBARS,[4]; normal diet rats,0.67 nmol/mL
same,iNOS in retina tissue (effect in words),[5],decreased
same,BCO2 expression in liver tissue (effect in words),[6]; FIG. 13,upregulate
same,Nrf2 expression in liver tissue (effect in words),"[6]; HFD rats, FIG. 16",decrease
same,NFkB in liver tissue (effect in words),"[6]; HFD rats, FIG. 17",decreased
same,HO-1 in liver tissue (effect in words),"[6]; HFD rats, FIG. 18",decreased
same,IRS-1 in liver (effect in words),"[6]; HFD rats, FIG. 19",increased
same,enhancement of liver HO-1 level,[6]; [10],1.41 fold
same,enhancement of liver p-IRS1 level,[6]; [10],1.33 fold
same,inhibition of liver NFkB expression,[6]; [10],22%
same,inhibition of liver TNF-α expression,[6]; [10],14%
same,PPAR gamma in liver tissue (effect in words),"[6]; HFD treated rats, FIG. 15",activated
same,enhancement of liver PPAR-α level,[7],3.53 fold
